Data from patent US20250059203A1, “USE OF ARISTOLOXAZINE C HAVING ANTICANCER ACTIVITY” (KOREA INSTITUTE OF ORIENTAL MEDICINE, priority 2021, published 2025).
One block for each compound: values may come before it.

Key:
[1] = tested on: Caki (clear cell kidney cancer); assay: MTT assay, Caki cells; assay type: cell-based, human; details: 72 h
Description: (§1) In order to evaluate the anticancer activity of aristoloxazine isolated in Example 1, the cytotoxic activity against 14 human cancer cell lines including SKMEL5 (melanoma), A431 (non-melanoma skin), PC3 (prostate), A549 (lung), HT1080 (fibrosarcoma), OVCAR3 (ovary), HCT116 (colon), AGS (stomach), HepG2 (liver), MCF7 (breast cancer), K562 (leukemia), U-87 (glioma), ACHN (renal adenocarcinoma) and Caki (clear cell kidney cancer) was evaluated.
(§2) Cells were seeded (1 to 2.5×10^3 cells per well) in 96-well plates and then allowed to settle overnight. Next, the cells were treated with different doses of the compound for 24 hours, 48 hours or 72 hours in a 37° C. CO2 incubator, and 20 μL of MTT ((4,5-dimethylthiazol-2-yl)-2,5-diphenyltetrazolium bromide reagent (Sigma-Aldrich, Inc., St. Louis, MO, USA) was added to each well. After 1 to 2 hours, the medium was discarded, and 100 μL of DMSO (dimethyl sulfoxide, VWR Life Science, Ohio, USA) was added, and then, absorbance was measured at 570 nm by using a Multiskan Skyhigh microplate spectrophotometer (Thermo Scientific, Singapore). 5-FU was used as a positive control. The extract in Table 2 was a 70% ethanol Asarum heterotropoides root extract obtained in the process of preparing the Asarum heterotropoides root fraction of Example 1-2.

[2] = tested on: A431 (non-melanoma skin cancer); assay: MTT assay, A431 cells; assay type: cell-based, human
Description: as §1, §2

HCT116 (colon cancer) = assay: MTT assay, HCT116 cells; assay type: cell-based, human
Description: as §1, §2

SKMEL5 (melanoma) = assay: MTT assay, SKMEL5 cells; assay type: cell-based, human
Description: as §1, §2

[3] = tested on: ACHN (renal adenocarcinoma); assay: MTT assay, ACHN cells; assay type: cell-based, human; details: 72 h
Description: as §1, §2

A549 (lung cancer) = assay: MTT assay, A549 cells; assay type: cell-based, human; details: A549, 72 h
Description: as §1, §2

U-87 (glioma) = assay: MTT assay, U-87 cells; assay type: cell-based, human; details: U-87, 72 h
Description: as §1, §2

HT1080 (fibrosarcoma) = assay: MTT assay, HT1080 cells; assay type: cell-based, human
Description: as §1, §2

AGS (stomach cancer) = assay: MTT assay, AGS cells; assay type: cell-based, human; details: 72 h
Description: as §1, §2

K562 (leukemia) = assay: MTT assay, K562 cells; assay type: cell-based, human; details: K562, 72 h
Description: as §1, §2

OVCAR3 (ovarian cancer) = assay: MTT assay, OVCAR3 cells; assay type: cell-based; details: Homo sapiens, OVCAR-3, OVCAR3, 72 h
Description: as §1, §2

[4] = tested on: 14 human cancer cell lines; assay: MTT assay, panel of all cancer cell lines tested; assay type: cell-based; details: span over all cancer cell lines tested, read-out: IC50 values, cytotoxicity against all cells that were tested
Description: as §1, §2

PC3 (prostate cancer) = assay: MTT assay, PC3 cells; assay type: cell-based; details: Homo sapiens, PC-3, PC3, 72 h
Description: as §1, §2

MCF7 (breast cancer) = assay: MTT assay, MCF7 cells; assay type: cell-based; details: Homo sapiens, MCF7, 72 h
Description: as §1, §2

HepG2 (liver cancer) = assay: MTT assay, HepG2 cells; assay type: cell-based; details: Homo sapiens, HepG2, 72 h
Description: as §1, §2

- IC50 [1]: 9900 ± 200 nM
- IC50 ([2]; A431, 72 h): 1000 ± 30 nM
- IC50 (HCT116 (colon cancer); HCT116, 72 h): 3500 ± 100 nM
- IC50 (SKMEL5 (melanoma); SKMEL5, 72 h): 8400 ± 700 nM
- IC50 [3]: 9100 ± 2900 nM
- IC50 (A549 (lung cancer)): 2400 ± 100 nM
- IC50 (U-87 (glioma)): 9000 ± 200 nM
- IC50 (HT1080 (fibrosarcoma); HT1080, 72 h): 4900 ± 100 nM
- IC50 (AGS (stomach cancer)): 3200 ± 100 nM
- IC50 (K562 (leukemia)): 6700 ± 200 nM
Compound: O=c1[nH]cc(F)c(=O)[nH]1 [Compound 5-FU, 5-FU, reference compound]

Compound: COc1cccc2c1[C@H](SCC(N)=O)c1noc(=O)c3cc4c(c-2c13)OCO4 [Aristoloxazine C]
- IC50 ([1]; Homo sapiens): 65.4 ± 2.9 nM
- IC50 ([2]; Homo sapiens, A-431, A431, 72 h): 85.7 ± 2.5 nM
- IC50 (HCT116 (colon cancer); Homo sapiens, HCT-116, HCT116, 72 h): 29.3 ± 0.2 nM
- IC50 (SKMEL5 (melanoma); Homo sapiens, SK-MEL-5, SKMEL5, 72 h): 72.1 ± 0.4 nM
- IC50 (OVCAR3 (ovarian cancer)): 374 ± 12 nM
- IC50 [4]: 17.8 to 374 nM
- IC50 ([3]; Homo sapiens): 17.8 ± 0.1 nM
- IC50 (PC3 (prostate cancer)): 84.3 ± 2 nM
- IC50 (MCF7 (breast cancer)): 46.4 ± 2 nM
- IC50 (A549 (lung cancer); Homo sapiens): 25.7 ± 0.7 nM
- IC50 (U-87 (glioma); Homo sapiens, U-87 MG): 57.8 ± 5.5 nM
- IC50 (HT1080 (fibrosarcoma); Homo sapiens, HT-1080, HT1080, 72 h): 143 ± 2.3 nM
- IC50 (AGS (stomach cancer); Homo sapiens): 22.1 ± 0.8 nM
- IC50 (K562 (leukemia); Homo sapiens): 78.6 ± 2 nM
- IC50 (HepG2 (liver cancer)): 149.2 ± 0.7 nM
